Columns and labels:
Format in all cases: biochemical
[1] = molecular target: T1, cathepsin B isolated from human liver (Homo sapiens, UniProt P07858); experiment: Cathepsin B kinetic fluorescence enzyme inhibition assay; conditions: selectivity ratio versus calpain I
T1 construct: cathepsin B—isolated from human liver; purchased Calbiochem 219362; host or cells: human liver (tissue isolate)
Method in brief: (§1)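 Inhibition is measured at room temperature in cysteine-containing MES buffer, pH 6.0, by continuous fluorescence at 460 nm. Cathepsin S (0.5 nM) uses 20 μM Z-Val-Val-Arg-AMC; L (1 nM) and B (0.25 nM) use Z-Phe-Arg-AMC at 2 and 100 μM respectively.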

[2] = molecular target: T2, recombinant human cathepsin S (Homo sapiens, UniProt P25774); experiment: Cathepsin S kinetic fluorescence enzyme inhibition assay; conditions: selectivity ratio versus calpain I
T2 construct: purchased Calbiochem 219343; host or cells: E. coli
T2 sequence (P25774 115-331): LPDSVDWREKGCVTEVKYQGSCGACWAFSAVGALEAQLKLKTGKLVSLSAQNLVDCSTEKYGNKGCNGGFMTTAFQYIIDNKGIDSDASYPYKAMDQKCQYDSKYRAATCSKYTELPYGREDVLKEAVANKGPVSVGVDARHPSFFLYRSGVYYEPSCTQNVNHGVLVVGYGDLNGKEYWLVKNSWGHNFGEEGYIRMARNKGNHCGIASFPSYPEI
Method in brief: as §1

[3] = molecular target: T3, cathepsin L isolated from human liver (Homo sapiens, UniProt P07711); experiment: Cathepsin L kinetic fluorescence enzyme inhibition assay; conditions: selectivity ratio versus calpain I
T3 construct: cathepsin L—isolated from human liver; purchased Calbiochem 219402; host or cells: human liver (tissue isolate)
T3 sequence (P07711 114-333): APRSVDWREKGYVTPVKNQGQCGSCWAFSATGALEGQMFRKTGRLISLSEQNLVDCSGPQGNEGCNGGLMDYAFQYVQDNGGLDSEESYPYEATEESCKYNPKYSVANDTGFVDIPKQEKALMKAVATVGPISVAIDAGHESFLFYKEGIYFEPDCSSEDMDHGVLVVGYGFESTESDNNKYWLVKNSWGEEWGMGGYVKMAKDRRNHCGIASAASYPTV
Method in brief: as §1

[4] = molecular target: T4, cathepsin K activated from recombinant human procathepsin K (Homo sapiens, UniProt P43235); experiment: Cathepsin K kinetic fluorescence enzyme inhibition assay; conditions: selectivity ratio versus calpain I
T4 construct: purchased Calbiochem 342001; host or cells: E. coli
T4 sequence (P43235 115-329): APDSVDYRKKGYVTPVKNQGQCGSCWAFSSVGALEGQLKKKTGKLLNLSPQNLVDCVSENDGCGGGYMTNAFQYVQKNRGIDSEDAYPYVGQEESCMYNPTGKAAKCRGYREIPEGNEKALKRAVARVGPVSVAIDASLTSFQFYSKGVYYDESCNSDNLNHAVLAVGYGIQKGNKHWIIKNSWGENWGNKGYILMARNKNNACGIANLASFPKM

[5] = molecular target: T5, calpain-I isolated from human erythrocytes (Homo sapiens, UniProt P07384); experiment: Calpain I kinetic fluorescence enzyme inhibition assay; conditions: apparent Ki from IC50 by Cheng-Prussoff; average of 2 to 4 dose-effect plots
T5 construct: calpain-I—isolated from human erythrocytes; purchased Calbiochem 208713; host or cells: human erythrocytes (tissue isolate)
T5 sequence (P07384 1-714): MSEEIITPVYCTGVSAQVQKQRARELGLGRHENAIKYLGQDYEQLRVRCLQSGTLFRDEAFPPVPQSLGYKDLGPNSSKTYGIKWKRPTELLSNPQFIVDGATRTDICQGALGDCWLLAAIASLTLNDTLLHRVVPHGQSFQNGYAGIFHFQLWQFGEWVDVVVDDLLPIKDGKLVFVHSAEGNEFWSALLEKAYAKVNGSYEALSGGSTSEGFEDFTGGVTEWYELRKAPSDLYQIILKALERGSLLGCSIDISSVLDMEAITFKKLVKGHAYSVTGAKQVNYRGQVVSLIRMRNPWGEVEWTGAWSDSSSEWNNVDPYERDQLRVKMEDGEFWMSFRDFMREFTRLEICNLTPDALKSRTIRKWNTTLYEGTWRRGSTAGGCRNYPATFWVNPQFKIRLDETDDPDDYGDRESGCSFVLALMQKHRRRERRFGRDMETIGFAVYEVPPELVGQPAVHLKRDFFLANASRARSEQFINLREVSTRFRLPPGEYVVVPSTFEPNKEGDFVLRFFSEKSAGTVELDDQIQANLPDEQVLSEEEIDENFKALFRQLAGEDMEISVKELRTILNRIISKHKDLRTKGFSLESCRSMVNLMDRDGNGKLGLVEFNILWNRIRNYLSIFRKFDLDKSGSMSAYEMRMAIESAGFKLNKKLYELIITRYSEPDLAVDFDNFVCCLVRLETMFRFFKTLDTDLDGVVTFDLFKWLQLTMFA
T5 sequence (P04632 1-268 partner): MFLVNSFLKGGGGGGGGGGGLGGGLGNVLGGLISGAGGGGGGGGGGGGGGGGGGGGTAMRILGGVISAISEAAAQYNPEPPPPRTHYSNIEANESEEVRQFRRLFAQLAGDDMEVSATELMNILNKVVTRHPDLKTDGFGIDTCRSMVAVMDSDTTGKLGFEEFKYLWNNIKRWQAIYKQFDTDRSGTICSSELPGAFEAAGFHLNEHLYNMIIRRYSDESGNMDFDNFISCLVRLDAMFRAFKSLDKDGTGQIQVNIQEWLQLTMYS

SMILES	Sel cat. B (Ki(cathepsin B)/Ki(calpain) ratio) [1]	Sel cat. K (Ki(cathepsin K)/Ki(calpain) ratio) [4]	Ki [5] [nM]	Sel cat. S (Ki(cathepsin S)/Ki(calpain) ratio) [2]	Sel cat. L (Ki(cathepsin L)/Ki(calpain) ratio) [3]
COc1ccc(CC(NC(=O)c2cccnc2-n2ccc(-c3ccc(F)cc3)n2)C(=O)C(N)=O)cc1 (stereo not drawn) [Example 81, N-[3-Amino-1-(4-methoxybenzyl)-2,3-dioxopropyl]-2-[3-(4-fluorophenyl)-1H-pyrazol-1-yl]nicotinamide]	+ (10≦Ki(cathepsin B)/Ki(calpain)<30)	+ (10≦Ki(cathepsin K)/Ki(calpain)<30)	≤ 40	++ (Ki(cathepsin S)/Ki(calpain) ratio of ≧100)	++ (Ki(cathepsin L)/Ki(calpain) ratio of ≧50)
NC(=O)C(=O)C(Cc1ccccc1)NC(=O)c1cccnc1-n1cc2c(n1)-c1ccccc1SC2 (stereo not drawn) [Example 173, N-[3-Amino-2,3-dioxo-1-(phenylmethyl)propyl]-2-thiochromeno[4,3-c]pyrazol-2(4H)-ylpyridine-3-carboxamide]	+ (10≦Ki(cathepsin B)/Ki(calpain)<30)	+ (10≦Ki(cathepsin K)/Ki(calpain)<30)	≤ 40	++ (Ki(cathepsin S)/Ki(calpain) ratio of ≧100)	++ (Ki(cathepsin L)/Ki(calpain) ratio of ≧50)
NC(=O)C(=O)C(Cc1ccccc1)NC(=O)c1cccnc1-n1cc(Cl)c(-c2ccc(F)cc2)n1 (stereo not drawn) [Example 184, N-[3-Amino-2,3-dioxo-1-(phenylmethyl)propyl]-2-[4-chloro-3-(4-fluorophenyl)-1H-pyrazol-1-yl]pyridine-3-carboxamide]	+ (10≦Ki(cathepsin B)/Ki(calpain)<30)	+ (10≦Ki(cathepsin K)/Ki(calpain)<30)	40 to 100	++ (Ki(cathepsin S)/Ki(calpain) ratio of ≧100)	++ (Ki(cathepsin L)/Ki(calpain) ratio of ≧50)
NC(=O)C(=O)C(Cc1ccc(F)cc1)NC(=O)c1cccnc1-n1ccc(-c2ccccc2)n1 (stereo not drawn) [Example 123, N-{3-Amino-1-[(4-fluorophenyl)methyl]-2,3-dioxopropyl}-2-(3-phenyl-1H-pyrazol-1-yl)pyridine-3-carboxamide]	++ (Ki(cathepsin B)/Ki(calpain) ratio of ≧30)	++ (Ki(cathepsin K)/Ki(calpain) ratio of ≧30)	≤ 40	++ (Ki(cathepsin S)/Ki(calpain) ratio of ≧100)	++ (Ki(cathepsin L)/Ki(calpain) ratio of ≧50)
COc1ccc(CC(NC(=O)c2cccnc2-n2ccc(-c3ccccc3)n2)C(=O)C(N)=O)cc1 (stereo not drawn) [Example 80, N-[3-Amino-1-(4-methoxybenzyl)-2,3-dioxopropyl]-2-(3-phenyl-1H-pyrazol-1-yl)nicotinamide]	++ (Ki(cathepsin B)/Ki(calpain) ratio of ≧30)	+ (10≦Ki(cathepsin K)/Ki(calpain)<30)	40 to 100	++ (Ki(cathepsin S)/Ki(calpain) ratio of ≧100)	++ (Ki(cathepsin L)/Ki(calpain) ratio of ≧50)
NC(=O)C(=O)C(Cc1ccccc1)NC(=O)c1cccnc1-n1ccc(-c2ccc(C(F)(F)F)cc2)n1 (stereo not drawn) [Example 60, N-(3-Amino-1-benzyl-2,3-dioxopropyl)-2-{3-[4-(trifluoromethyl)phenyl]-1H-pyrazol-1-yl}nicotinamide]	+ (10≦Ki(cathepsin B)/Ki(calpain)<30)	+ (10≦Ki(cathepsin K)/Ki(calpain)<30)	40 to 100	+ (50≦Ki(cathepsin S)/Ki(calpain)<100)	++ (Ki(cathepsin L)/Ki(calpain) ratio of ≧50)
NC(=O)C(=O)C(Cc1ccccc1)NC(=O)c1cccnc1-n1ccc(-c2ccccc2OC(F)F)n1 (stereo not drawn) [Example 166, N-[3-Amino-2,3-dioxo-1-(phenylmethyl)propyl]-2-(3-{2-[(difluoromethyl)oxy]phenyl}-1H-pyrazol-1-yl)pyridine-3-carboxamide]	+ (10≦Ki(cathepsin B)/Ki(calpain)<30)	++ (Ki(cathepsin K)/Ki(calpain) ratio of ≧30)	≤ 40	++ (Ki(cathepsin S)/Ki(calpain) ratio of ≧100)	++ (Ki(cathepsin L)/Ki(calpain) ratio of ≧50)
Cl.NC(=O)C(=O)C(Cc1cccnc1)NC(=O)c1cccnc1-n1ccc(-c2ccccc2)n1 (stereo not drawn) [Example 88, N-[3-Amino-2,3-dioxo-1-(pyridin-3-ylmethyl)propyl]-2-(3-phenyl-1H-pyrazol-1-yl)pyridine-3-carboxamide hydrochloride]	+ (10≦Ki(cathepsin B)/Ki(calpain)<30)	++ (Ki(cathepsin K)/Ki(calpain) ratio of ≧30)	40 to 100	++ (Ki(cathepsin S)/Ki(calpain) ratio of ≧100)	++ (Ki(cathepsin L)/Ki(calpain) ratio of ≧50)
COc1ccc(-c2ccn(-c3ncccc3C(=O)NC(Cc3ccccc3)C(=O)C(N)=O)n2)c(OC)c1 (stereo not drawn) [Example 117, N-[3-Amino-2,3-dioxo-1-(phenylmethyl)propyl]-2-{3-[2,4-bis(methyloxy)phenyl]-1H-pyrazol-1-yl}pyridine-3-carboxamide]	++ (Ki(cathepsin B)/Ki(calpain) ratio of ≧30)	++ (Ki(cathepsin K)/Ki(calpain) ratio of ≧30)	≤ 40	++ (Ki(cathepsin S)/Ki(calpain) ratio of ≧100)	++ (Ki(cathepsin L)/Ki(calpain) ratio of ≧50)
NC(=O)C(=O)C(Cc1ccc(F)cc1)NC(=O)c1cccnc1-n1ccc(-c2ccccc2OC(F)(F)F)n1 (stereo not drawn) [Example 152, N-{3-Amino-1-[(4-fluorophenyl)methyl]-2,3-dioxopropyl}-2-(3-{2-[(trifluoromethyl)oxy]phenyl}-1H-pyrazol-1-yl)pyridine-3-carboxamide]	++ (Ki(cathepsin B)/Ki(calpain) ratio of ≧30)	++ (Ki(cathepsin K)/Ki(calpain) ratio of ≧30)	≤ 40	++ (Ki(cathepsin S)/Ki(calpain) ratio of ≧100)	++ (Ki(cathepsin L)/Ki(calpain) ratio of ≧50)

Continued, in another order:

Sel cat. B (Ki(cathepsin B)/Ki(calpain) ratio) [1]	Sel cat. K (Ki(cathepsin K)/Ki(calpain) ratio) [4]	Ki [5] [nM]	SMILES	Sel cat. S (Ki(cathepsin S)/Ki(calpain) ratio) [2]	Sel cat. L (Ki(cathepsin L)/Ki(calpain) ratio) [3]
+ (10≦Ki(cathepsin B)/Ki(calpain)<30)	+ (10≦Ki(cathepsin K)/Ki(calpain)<30)	≤ 40	NC(=O)C(=O)C(Cc1ccccc1)NC(=O)c1cccnc1-n1ccc(-c2cccs2)n1 (stereo not drawn) [Example 55, N-(3-Amino-1-benzyl-2,3-dioxopropyl)-2-[3-(2-thienyl)-1H-pyrazol-1-yl]nicotinamide]	++ (Ki(cathepsin S)/Ki(calpain) ratio of ≧100)	++ (Ki(cathepsin L)/Ki(calpain) ratio of ≧50)
+ (10≦Ki(cathepsin B)/Ki(calpain)<30)	+ (10≦Ki(cathepsin K)/Ki(calpain)<30)	40 to 100	NC(=O)C(=O)C(Cc1ccccc1)NC(=O)c1cccnc1-n1ccc(-c2ccccc2C(F)(F)F)n1 (stereo not drawn) [Example 72, N-(3-Amino-1-benzyl-2,3-dioxopropyl)-2-{3-[2-(trifluoromethyl)phenyl]-1H-pyrazol-1-yl}nicotinamide]	++ (Ki(cathepsin S)/Ki(calpain) ratio of ≧100)	+ (30≦Ki(cathepsin L)/Ki(calpain)<50)

Reference: patent US7728012B2, “Carboxamide compounds and their use as calpain inhibitors” (Abbott GmbH & Co. KG, priority 2006, dated 2010)
